From patent US20040110681A1, “Method to identify targeting molecules” (priority 2002, published 2004)
Several values for one entry are separate records, joined by “and”; a condition that tells them apart may be missing. Equal entries are not always repeated. Positions of bridges follow the written chain, without caps; N, C: chain ends. Non-standard residues stand in square brackets, D forms with d. Residues, ends and D or L forms follow the SMILES beside them. hArg = N=C(N)NCCCC[C@H](N)C(=O)O; Mpa = O=C(O)CCS

Tests used:
[1] = test system: brain tissue; assay: Individual peptide variants of A3 on phage, brain selectivity index vs T7-lacZ; format: in vivo, FVB or BALB/c mice; details: 2 hours circulation; for Brain Targeting Activity: 0.5-1×10^10 pfu co-injected with T7-lacZ; for Selectivity index (BALB/C mice) / Selectivity index (FVB female): brain tissue; for Selectivity index (FVB female): FVB female mice
Procedure: In this example, various individual peptide variants of A3 were tested in vivo for their ability to target brain or other tissues. […] The phage contents of each organ were determined by plaque assay in the presence of X-gal (500 μg/mL) in top agar.
Thus, selectively indices of less than 10 are considered low, those between 10 and […] are considered moderate and those over 100 are considered high.

[2] = Pharmacokinetic analysis, plasma half-life of fusion protein and free peptide; format: in vivo; details: read-out: plasma t½
[3] = test system: brain; assay: Head to head comparison of CAGAXCY variants (L5, N5, M5) vs control lacZ phage; format: in vivo; details: 6 hours after administration vs 2 hours
[4] = test system: brain; assay: CX4CY phage library, one round of in vivo panning to brain; parameters: species or system BALB/c mice; details: 4 hrs post phage injection
Procedure: A CX4CY library was prepared and tested. 1×10^10 pfu of the library phage were injected into 6 BALB/c mice (3 mice/time point). At 30 min and 4 hr post-injection, brain was harvested and processed as described above. Similar numbers of plaques were picked individually, and the insert sequence amplified by PCR and sequenced. Alignment analysis of the sequence data was performed with a version of Clustral/W.

[5] = test system: brain; assay: kSAR: co-injection of all 20 CAGAXCY (position 5) phage variants, sequence frequency in brain; format: in vivo, BALB/c mice
Procedure: To determine the optimum amino acid for position 5, all 20 variants at this position were injected. For co-injection of all 20 variants of CAGAXCY phage, individual phage were grown up and titered. Equivalent amounts of each phage type were added to PBS and 200 μL dose of the mixture was injected into 3 BALB/c mice per group (two time points of 30 minutes and 4 hours were studied, total of 6 mice). At 30 min and 4 hrs post injection, the mice were anesthetized, perfused and blood and brain were harvested. Aliquots of both the initial phage pool used for dosing as well as brain tissue samples were plated out, and approximately 100 individual plaques from each set were amplified by PCR using the T7 Super up primer method and sequenced using a CEQ 2000XL sequencer (Beckman Coulter, Calif.).
A total of 107 individual phage from the initial mixture used for dosing were sequenced to verify the relative abundance of the individual phage within the administered dose and these were compared with the relative frequency of the different phage recovered from brain after 30 minutes or 4 hours of circulation. There was a marked and rapid shift in frequency even by 30 minutes, where there was a marked enrichment of phage expressing N at the X5 position, (from 7% in the initial pool to 49%), M (from 5% to 24%) or L (2.8% to 12%) at 30 minutes.

[6] = test system: platelets adhering to the pial vasculature; assay: Intravital microscopy of platelet adhesion to pial vessels, LPS-induced model of sepsis
Procedure: The effect of the A3 mimetic of blood cell adhesion to brain vasculature was assessed by intravital microscopy. Platelets or leukocytes were fluorescently labeled and then the interaction of the labeled cells with the vascular endothelium imaged and analyzed pre and post the addition of various compounds. Platelets were isolated from blood of source animals by differential centrifugation at 200 g for 10 minutes, to pellet erythrocytes and leukocytes. The supernatant, designated platelet-rich plasma contained less than 0.5% leukocytes as determined by the number of DAPI-positive nucleated cells. The platelets were pelleted by spinning at 500 g, resuspended in Tyrode's buffer and incubated for 20 min with 5-,-6-carboxyfluorescein diacetate, succinimidyl ester (CFDA, or CFSE). 1×10^8 platelets in 0.1 ml were injected slowly over 5 minutes via a carotid catheter into anesthetized mice. […] Platelet rolling and adhesion was recorded for off-line analysis onto videotape or onto hard-drive of the computer via an intensified camera (Cascade, Roper Scientific) on a Leica DM-FSA upright microscope. […] Leukocytes are fluorescence-labeled in vivo by injecting Rhodamine 6G via a carotid catheter and analyzing the movement of the labeled cells on brain endothelium.
For the platelet studies a known antagonist of platelet-platelet interactions, Integrilin™ (Cor Therapeutics) was also evaluated. […]

[7] = test system: brain, lung, liver, kidney, colon; assay: Effect of dose on the brain-targeting properties of T7-CAGALCY (SI, SPI); format: in vivo, FVB female mice; details: for Organ Specificity Index (SPI), ratio of SI brain to colon / Organ Specificity Index (SPI), ratio of SI brain to kidney / Organ Specificity Index (SPI), ratio of SI brain to liver / Organ Specificity Index (SPI), ratio of SI brain to lung / Selectivity index (SI), brain / Selectivity index (SI), colon / Selectivity index (SI), kidney / Selectivity index (SI), liver / Selectivity index (SI), lung: 4 hours; for Organ Specificity Index (SPI), ratio of SI brain to colon / Organ Specificity Index (SPI), ratio of SI brain to kidney / Organ Specificity Index (SPI), ratio of SI brain to liver / Organ Specificity Index (SPI), ratio of SI brain to lung: mean; for Selectivity index (SI), brain / Selectivity index (SI), colon / Selectivity index (SI), kidney / Selectivity index (SI), liver / Selectivity index (SI), lung: mean ± SEM
Procedure: In the dose response study, in paragraph B below, three mice were used per dose, co-injected with 1×10^7, 1×10^8, 1×10^9, 1×10^10, 1×10^11 pfu of each phage.
For each dose, three mice were injected. Four hours after phage administration, phage were recovered from the brain, lung, liver, kidney, colon, and blood.
This was measured as A3-T7 phage yield per gram tissue from various organs normalized by the yield/g tissue of the control phage.

[8] = test system: brain, lung, liver, kidney, blood and spleen; assay: Pharmacokinetic (PK) analysis of T7-CAGALCY and T7-lacZ phage, plaque assay; format: in vivo, FVB female mice
Procedure: A3-T7 was amplified in the host strain BLT-5615 in the presence of 1 mM IPTG and purified. T7-lacZ phage were amplified by large scale plating on LB plates. The plates were incubated at 25° C. overnight, and phage were eluted with phage extraction buffer (20 mM Tris-HCl, pH 8.0, 100 mM NaCl, 6 mM MgSO4) overnight at 4° C. with gentle rocking. The extracted phage were pooled and purified. In the PK study, in paragraph A below, three mice were used per time point, co-injected with 1×10^10 pfu of each phage. Time points were 2 min, 10 min, 30 min, 1 hr, 2 hr, 4 hr, 6 hr, 12 hr, and 24 hr.
Mice were anesthetized with Avertin 2-4 minutes before the scheduled harvest time (the mice assigned to the 2 minute time-point were anesthetized prior to administration of the phage). The brain, lung, liver, kidney, blood and spleen were harvested at 2 min, 10 min, 30 min, 1 hr, 2 hr, 4 hr, 6 hr, 12 hr, and 24 hr. The phage contents in each organ were determined by plaque assay in the presence of X-gal in top agar.

[9] = test system: brain; assay: Co-injection of A3 and control T7-LacZ phage, plaque assay of tissues and blood; format: in vivo, BALB/c mice; details: 10^9 pfu of each phage, tail vein, 1 hour circulation
Procedure: Plaque assays were used to determine the relative amounts of phage contained in blood and brain. For the blood assays, 300 μl of blood was drawn into 300 μl of 100 mM sodium citrate before perfusion. Plasma was recovered and saved for plaque assay. The phage content was assessed by mixing aliquots of the tissue homogenate or plasma with the bacterial BLT-5615 host, then plating on agar plates.
40 μl of 40 mg/ml of X-gal in DMF was added into 3 ml of top agar in each plate.
A mixture of the two phage (10^9 pfu of each phage) was injected into the tail veins of non-anesthetized BALB/c mice. […] Another measure of selective retention is to compare target organ to blood levels of the test phage.

[10] = 30 minutes after injection of 20-variant mixture
[11] = 4 hours after injection of 20-variant mixture

## CRDVNECD [reference compound]
[1]
  Brain Targeting Activity: No
  Selectivity index (BALB/C mice): 1
  Selectivity index (FVB female): 0.3

## CGALCY
[1]
  Brain Targeting Activity: No
  Selectivity index (FVB female): 0.8

## CPADCY [reference compound]
[1]
  Brain Targeting Activity: No
  Selectivity index (FVB female): 0.3

## CC(C)C[C@@H]1NC(=O)[C@H](C)NC(=O)CNC(=O)[C@H](C)NC(=O)[C@@H](N)CSSC[C@@H](C(=O)N[C@@H](Cc2ccc(O)cc2)C(=O)O)NC1=O [free synthetic peptide, CAGALCY] (H-CAGALCY-OH; disulfide 1-6)
[2]
  half-life: 1 to 2 min

## CAGALCS
[1]
  Brain Targeting Activity: loss of brain targeting activity and No
  Selectivity index (FVB female): 3.0

## CDITEYC [reference compound]
[1]
  Brain Targeting Activity: No
  Selectivity index (BALB/C mice): 1
  Selectivity index (FVB female): 0.4

## CAGDSMCY [reference compound]
[1]
  Brain Targeting Activity: negative and No
  Selectivity index (BALB/C mice): 0.9

## CAGALCAY
[1]
  Brain Targeting Activity: brain targeting activity is lost and No
  Selectivity index (FVB female): 1.4

## CAGAMCY
[3]
  change of brain SI values: increase further
[4]
  enrichment among 83 sequences sampled from the brain: no enriched phage
[5]; [10]
  frequency of phage variant recovered from brain: 24%
[5]; [11]
  frequency of phage variant recovered from brain: 37%

## CAGALCF
[1]
  Brain Targeting Activity: Yes
  Selectivity index (BALB/C mice): 800
  Selectivity index (FVB female): >200

## CAGAGCY
[1]
  Brain Targeting Activity: No
  Selectivity index (FVB female): 1.1
[1]; listed as L5G
  Brain Targeting Activity: loss of brain targeting activity

## CAGALC
[1]
  Brain Targeting Activity: No
  Selectivity index (FVB female): 1.5

## CALCY
[1]
  Brain Targeting Activity: No
  Selectivity index (FVB female): 0.8

## CAGALSY
[1]
  Brain Targeting Activity: brain targeting capacity is lost and No
  Selectivity index (FVB female): 1.9

## CLCY
[1]
  Brain Targeting Activity: No
  Selectivity index (FVB female): 3.5

## CGFDMPC [reference compound]
[1]
  Brain Targeting Activity: No
  Selectivity index (FVB female): 0.5

## CAGANCY
[3]
  change of brain SI values: slight decrease
[4]
  enrichment among 83 sequences sampled from the brain: no enriched phage
[5]; [10]
  frequency of phage variant recovered from brain: 49%
[5]; [11]
  frequency of phage variant recovered from brain: 55%

## N=C(N)NCCCC[C@@H]1NC(=O)CCSSC[C@@H](C(N)=O)NC(=O)[C@@H]2CCCN2C(=O)[C@H](Cc2c[nH]c3ccccc23)NC(=O)[C@H](CC(=O)O)NC(=O)CNC1=O [Integrilin] ([Mpa][hArg]GDWPC-NH2; disulfide 1-7)
[6]; 4 hours after i.p. 10 μg LPS, Integrilin at 40 mg/kg
  platelet adhesion to pial vessels: slight antagonistic effect
[6]; higher doses than 40 mg/kg
  DIC and adhesion of microaggregates to the brain vasculature: exacerbated DIC and adhesion of microaggregates to the brain vasculature

## CAGGLCY
[1]
  Brain Targeting Activity: No
  Selectivity index (FVB female): 0.9
[1]; listed as A4G
  Brain Targeting Activity: loss of brain targeting activity

## CAGAPCY
[1]
  Brain Targeting Activity: brain targeting capacity is lost and No
  Selectivity index (FVB female): 7.6

## YCDAPC [reference compound]
[1]
  Brain Targeting Activity: No
  Selectivity index (FVB female): 0.7

## CAGALCY [T7-A3]
[7]; 1 × 10^7 pfu
  Organ Specificity Index (SPI), ratio of SI brain to colon: 4.57
  Organ Specificity Index (SPI), ratio of SI brain to kidney: 1.92
  Organ Specificity Index (SPI), ratio of SI brain to liver: 2.34
  Organ Specificity Index (SPI), ratio of SI brain to lung: 4.23
  Selectivity index (SI), brain: 13.2
  Selectivity index (SI), colon: 1.8 ± 1.1
  Selectivity index (SI), kidney: 5.0 ± 3.1
  Selectivity index (SI), liver: 6.3 ± 5.4
  Selectivity index (SI), lung: 1.9 ± 0.8
[7]; 1 × 10^8 pfu
  Organ Specificity Index (SPI), ratio of SI brain to colon: 2.82
  Organ Specificity Index (SPI), ratio of SI brain to kidney: 2.08
  Organ Specificity Index (SPI), ratio of SI brain to liver: 3.27
  Organ Specificity Index (SPI), ratio of SI brain to lung: 0.65
  Selectivity index (SI), brain: 10.5 and 10
  Selectivity index (SI), colon: 4.3 ± 1.8
  Selectivity index (SI), kidney: 5.4 ± 1.3
  Selectivity index (SI), liver: 4.2 ± 1.9
  Selectivity index (SI), lung: 14.3 ± 6.8
[7]; 1 × 10^9 pfu
  Organ Specificity Index (SPI), ratio of SI brain to colon: 8.87
  Organ Specificity Index (SPI), ratio of SI brain to kidney: 3.27
  Organ Specificity Index (SPI), ratio of SI brain to liver: 26
  Organ Specificity Index (SPI), ratio of SI brain to lung: 3.23
  Selectivity index (SI), brain: 121
  Selectivity index (SI), colon: 18.3 ± 6.8
  Selectivity index (SI), kidney: 47.3 ± 18.5
  Selectivity index (SI), liver: 8.2 ± 3.1
  Selectivity index (SI), lung: 47.3 ± 12.5
[7]; 1 × 10^10 pfu
  Organ Specificity Index (SPI), ratio of SI brain to lung: 4.03
  Selectivity index (SI), brain: 150
  Selectivity index (SI), colon: 7.9 ± 1.2
  Selectivity index (SI), kidney: 20.7 ± 6.4
  Selectivity index (SI), liver: 8.9 ± 5.1
  Selectivity index (SI), lung: 40.7 ± 9.2
[7]; 1 × 10^11 pfu
  Organ Specificity Index (SPI), ratio of SI brain to lung: 3.3
  Selectivity index (SI), brain: 118 ± 47.3
  Selectivity index (SI), colon: 5.3 ± 1.6
  Selectivity index (SI), kidney: 10.3 ± 1.7
  Selectivity index (SI), liver: 4.2 ± 0.4
  Selectivity index (SI), lung: 35.3 ± 11.0
[7]; all doses tested
  SPI values for lung, liver, kidney or colon compared to the other organs: lower than 10
[3]
  change of brain SI values: increase further
[4]
  enrichment among 83 sequences sampled from the brain: no enriched phage
[8]; 2 hr
  ratio of yield/g brain and yield/mL blood between T7-A3 and T7-lacZ phage: 250
[8]; 2 hr, 1×10^10 pfu
  Selectivity index (SI), brain: 51
  Selectivity index (SI), lung: 16.0
  selectivity index (SI), spleen: 1.98
[8]; 4 hour time point
  relative specificity for brain (SI brain compared to lung): 6 fold
[8]; 4 hr
  ratio of yield/g brain and yield/mL blood between T7-A3 and T7-lacZ phage: 1200
[8]; 4 hr, 1×10^10 pfu
  Selectivity index (SI), brain: 280 and 288
  Selectivity index (SI), liver: 4.62
  Selectivity index (SI), lung: 54.8 and 47
[8]; difference of half-lives in blood taken into account
  selectivity index, brain: over 100
[5]; [10]
  frequency of phage variant recovered from brain: 12%
[5]; [11]
  frequency of phage variant recovered from brain: 7.5%
[1]
  Brain Targeting Activity: Yes
  Selectivity index (BALB/C mice): 1000
  Selectivity index (FVB female): >200
[9]
  brain to blood ratio after normalization to control phage: > 100 fold

## CYGDPC [reference compound]
[1]
  Brain Targeting Activity: No
  Selectivity index (FVB female): 0.8

## CGGALCY
[1]
  Brain Targeting Activity: No
  Selectivity index (FVB female): 0.7
[1]; listed as A2G
  Brain Targeting Activity: loss of brain targeting activity

## CGADALCY
[1]
  Brain Targeting Activity: No
  Selectivity index (BALB/C mice): 1
